Values of other authors as cited in patent US5973199A, “Hydrosoluble organic salts of creatine” (priority 1994, dated 1999).

Columns and labels:
[1] = not given; remark: listed apart in the source

CN(CC(=O)O)C(=N)N [creatine, N-(aminoiminomethyl)-N-methylglycine]
creatine half-life in plasma: 1 to 1.5 h | tolerability of high doses ([1]; high doses of 5-10 g (mean body weights of 70 kg)): well tolerated | toxicity ([1]; in vivo): lack of toxicity
